Literature values as cited in article PMC3356383, “Efficacious Intermittent Dosing of a Novel JAK2 Inhibitor in Mouse Models of Polycythemia Vera” (PLoS ONE, 2012).

System: murine model of PV
Set-up: method as in PMID 18394554
Conditions: 42 days of continuous treatment; cited from earlier work

## Cc1cnc(Nc2ccc(OCCN3CCCC3)cc2)nc1Nc1cccc(S(=O)(=O)NC(C)(C)C)c1 [TG101348]
  Hematocrit reduction: 18%
